Laboratory results: PMC6829517 (International Journal of Molecular Sciences, 2019)
Converted amounts (≈) assume the structure as drawn. “Also recorded” adds a separate entry of the source. Read-outs that look alike come from different tables or passages of the source. Positions of bridges follow the written chain, without caps; N, C: chain ends. Non-standard residues stand in square brackets, D forms with d. Residues, ends and D or L forms follow the SMILES beside them.

Experiments:
[1] = test system: thermolysin; test: thermolysin in 50 mM TRIS pH 8, 0.5 mM CaCl2 buffer; conditions: 70 °C, up to 30 min
[2] = test system: pepsin; test: pepsin, temperature increased to 50 °C; conditions: up to 19 h
[3] = test system: pepsin; test: pepsin solution in HCl 0.01 M (pH 2); conditions: 37 °C, up to 2-20 h
[4] = test system: carboxypeptidase Y; test: carboxypeptidase Y solution in MES buffer (50 mM MES, 1 mM CaCl2 at pH 6.75); conditions: 25 °C, up to 4 h
[5] = test system: pepsin; conditions: cited from earlier work
[6] = 0.5 M NaOH in H2O-ACN (1:1); conditions: 40 °C, up to 48 h
[7] = test system: chymotrypsin; conditions: cited from earlier work
[8] = test system: trypsin; conditions: cited from earlier work
[9] = molecular target: pepsin (Sus scrofa, UniProt P00791); conditions: for Hydrolysis by pepsin at 37 °C: pepsin 1 mg/mL in HCl 0.01 M, pH 2, 37 °C, several hours, LC-MS; for Cleavage by pepsin at 50 °C: pH 2, 50 °C, 19 h, RP-HPLC
Text: Materials and reagents. Methanol was purchased from Scharlau, while acetonitrile was obtained from SDS. NaOH, 2,2,2-trifluoroethanol, pepsin, thermolysin were obtained from Sigma-Aldrich, while carboxypeptidase Y was purchased from Alfa Aesar. E. coli BL21 (DE3), which was used for heterologous expression, was purchased from Invitrogen. Bacterial strains were isolated from clinical specimens in the Microbiology Service of the Hospital Universitari de Bellvitge (Spain).
Collistin sulfate was supplied by Zhejiang Shenghua Biok Biology Co. LTD, China. Mueller-Hinton Broth (MHB) was obtained from Scharlau (Spain). […]
Then, 30 µL of NaOH 0.5 M (pH 12) was added, and the mixture was stirred overnight at 40 °C. […]
Pepsin. Purified peptide (20 µg) was dissolved in 150 µL HCl 0.01 M (pH 2). 40 µL of pepsin solution in HCl 0.01 M (1 mg/mL) was added to the peptide solution and incubated for 2-20 h at […]

[10] = test system: eight Gram-negative strains; test: MIC, broth microdilution; type: cell-based; conditions: all eight strains tested; summary of Table 1
Experimental: (§1) All experiments were performed in triplicate.

[11] = molecular target: T1, thermolysin (Bacillus thermoproteolyticus, UniProt P00800); test: Thermolysin stability assay; type: in vitro ADME; conditions: thermolysin 1 mg/mL, 50 mM Tris pH 8, 0.5 mM CaCl2, 30 min at 70 °C, LC-MS; loss of 137 Da (Val11-Gly12)
T1 construct: purchased Sigma-Aldrich
Experimental: Materials and reagents. Methanol was purchased from Scharlau, while acetonitrile was obtained […]
while carboxypeptidase Y was purchased from Alfa Aesar. E. coli BL21 (DE3), which was used for heterologous expression, was purchased from Invitrogen. Bacterial strains were isolated from […]
Hinton Broth (MHB) was obtained from Scharlau (Spain).
10 µL of 0.5 M NaOH was added.
LC-MS. […] For the isolation and […]
in 400 µL of H 2O-ACN (1:1). […]
was stirred overnight at 40 °C.
MES, 1 mM CaCl 2 at pH 6.75).
The reaction was quenched by
Pepsin. […] 40 µL of pepsin
Figure S6. RP-HPLC chromatograms and ESI + spectra after 30 min of thermolysin treatment at 70 °C in 50 mM TRIS pH 8, 0.5 mM CaCl 2 buffer. a) New compound, b) native MccJ25 and c) co-injection of the two peptides after the thermolysin cleavage. Conditions: XBridge C18 2.5 µm (4.6 mm x 75 mm) reversed-phase analytical column; linear gradient from 30% to 60% of ACN over 8 […]

[12] = test system: Bacterial biofilms; test: Minimal biofilm eradication concentration (MBEC); type: cell-based; conditions: in all cases; peg-lid biofilms, MHBCA, 24 h exposure at 37 °C, OD 620 nm, triplicate
Experimental: MBEC was determined as described by Moskowitz et al.. Bacterial biofilms were formed by immersing the pegs of a modified polystyrene microtiter lid into 96-well microtiter plates, each containing 200 µL of Muller-Hinton broth cation adjusted (MHBCA), followed by incubation at 37 °C for 24 h. Pegs were then gently rinsed in a 0.9% w/v NaCl solution and biofilms were exposed to a range of concentrations of antimicrobials for 24 h at 37 °C. Pegs were again rinsed with a 0.9% w/v NaCl solution and biofilms were removed by 10 min sonication. Recovered bacteria were incubated for 24 h at 37 °C. Optical densities at 620 nm were measured in order to determine MBEC values, defined as the lowest concentration of antimicrobial that prevented bacterial regrowth from the treated biofilm. All experiments were performed in triplicate.

[13] = test system: Escherichia coli MDR 208691; type: cell-based; conditions: MDR 208691, 24 h
Experimental: as §1

[14] = test system: Salmonella typhimurium SY5015; type: cell-based; conditions: murium SY5015, 24 h
Experimental: as §1

[15] = test system: Escherichia coli MDR 246415; type: cell-based; conditions: MDR 246415, 24 h
Experimental: as §1

[16] = test system: Escherichia coli MDR 239910; type: cell-based; conditions: MDR 239910, 24 h
Experimental: as §1

[17] = test system: Escherichia coli MDR 39255; type: cell-based; conditions: MDR 39255, 24 h
Experimental: as §1

[18] = test system: chymotrypsin, trypsin and pepsin; conditions: cited from earlier work
Experimental: (§2) Moreover, it is stable to highly denaturing conditions, such as 8 M urea and temperatures above 100 °C [6].

[19] = cited from earlier work
Experimental: as §2

[20] = test system: Salmonella enterica ATCC 13076; conditions: broth microdilution, MHB, 37 °C, 24 h, visual turbidity, triplicate
Experimental: (§3) MIC values were determined by the broth microdilution method and interpreted following the guidelines of the Clinical & Laboratory Standards Institute (CLSI) and European Committee on Antimicrobial Susceptibility Testing (EUCAST). The different strains were grown in Mueller-Hinton broth (MHB) overnight at 37 °C with shaking at 200 rpm. The bacterial cultures were then adjusted to OD625nm of 0.08–0.1 and diluted 1:100 in fresh MHB medium. Next, 5 µL of each diluted suspension was added to 96-well plates previously filled with MHB and serially diluted peptides. […] All experiments were performed in triplicate.

[21] = test system: Salmonella enterica ATCC 49214; conditions: broth microdilution, MHB, 37 °C, 24 h, visual turbidity, triplicate
Experimental: as §3

Chain of pepsin (Sus scrofa, UniProt P00791) (P00791 60-385): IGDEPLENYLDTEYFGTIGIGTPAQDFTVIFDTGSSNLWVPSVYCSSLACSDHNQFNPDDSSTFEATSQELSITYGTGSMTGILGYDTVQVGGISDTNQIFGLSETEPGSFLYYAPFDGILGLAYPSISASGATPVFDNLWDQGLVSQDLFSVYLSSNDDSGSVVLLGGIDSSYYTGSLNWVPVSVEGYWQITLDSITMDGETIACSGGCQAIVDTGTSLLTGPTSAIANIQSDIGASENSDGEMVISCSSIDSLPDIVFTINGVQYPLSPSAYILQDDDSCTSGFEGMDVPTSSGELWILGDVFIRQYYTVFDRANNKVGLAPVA
T1 sequence (P00800 233-548): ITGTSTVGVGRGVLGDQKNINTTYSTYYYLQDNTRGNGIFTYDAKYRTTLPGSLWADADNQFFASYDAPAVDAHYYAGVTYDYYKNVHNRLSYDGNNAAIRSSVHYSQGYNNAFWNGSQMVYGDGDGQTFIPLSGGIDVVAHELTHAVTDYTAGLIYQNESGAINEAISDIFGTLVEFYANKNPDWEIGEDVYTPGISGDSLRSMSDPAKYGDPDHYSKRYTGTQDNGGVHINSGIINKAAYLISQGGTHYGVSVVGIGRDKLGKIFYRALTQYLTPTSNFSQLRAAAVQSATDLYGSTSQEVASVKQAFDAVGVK

Question: For GGAGHVPEYFVGIGTPISFYG [new compound], which cleaved bond [1] is on record?
Answer: Phe10-Val11; also recorded: Gly12-Ile13

Question: And the not cleaved [2]?
Answer: no cleavage was detected after 19 h

Question: What about the not cleaved [3] of the same molecule?
Answer: no hydrolysis was observed, even after several hours at pH 2 at 37 °C

Question: What about the cleaved bond [4] of the same molecule?
Answer: Phe10-Val11; also recorded: Val11-Gly12

Question: Which cleaved bond [1] does the source give for GGAGHVPEYFVGIGTPISFYG [MccJ25] here?
Answer: Gly12-Ile13; also recorded: Phe10-Val11

Question: What about the not cleaved [2] of the same molecule?
Answer: no cleavage was detected after 19 h

Question: And the not cleaved [3]?
Answer: no hydrolysis was observed, even after several hours at pH 2 at 37 °C

Question: What about the not cleaved [5] of the same molecule?
Answer: high thermal and proteolytic stability

Question: What about the fragment found [6] of the same molecule?
Answer: new compound (epimerization of Val11)

Question: And the not cleaved [7]?
Answer: high thermal and proteolytic stability

Question: And the not cleaved [8]?
Answer: high thermal and proteolytic stability

Question: What about the cleaved bond [4] of the same molecule?
Answer: Phe10-Val11; also recorded: Val11-Gly12

Question: For CC[C@H](C)[C@H](NC(=O)CNC(=O)[C@H](NC(=O)[C@H](Cc1ccccc1)NC(=O)[C@H](Cc1ccc(O)cc1)NC(=O)[C@@H]1CCC(=O)NCC(=O)NCC(=O)N[C@@H](C)C(=O)NCC(=O)N[C@@H](Cc2c[nH]cn2)C(=O)N[C@@H](C(C)C)C(=O)N2CCC[C@H]2C(=O)N1)C(C)C)C(=O)NCC(=O)N[C@H](C(=O)N1CCC[C@H]1C(=O)N[C@H](C(=O)N[C@@H](CO)C(=O)N[C@@H](Cc1ccccc1)C(=O)N[C@@H](Cc1ccc(O)cc1)C(=O)NCC(=O)O)[C@@H](C)CC)[C@@H](C)O [New Compound] (GGAGHVPEYF[dV]GIGTPISFYG-OH; lactam N-8), which “Hydrolysis by pepsin at 37 °C” value [9] is on record?
Answer: no hydrolysis was observed

Question: What about the “Cleavage by pepsin at 50 °C” value [9] of the same molecule?
Answer: no cleavage was detected

Question: And the “MIC values in all cases” value [10]?
Answer: higher than 128 μg/mL

Question: What about the “Outcome of thermolysin treatment” value [11] of the same molecule?
Answer: double cleavage between Phe10-Val11 and Gly12-Ile13

Question: What about the “Minimal biofilm eradication concentration (MBEC)” value [12] of the same molecule?
Answer: greater than 128 μg/mL

Question: And the “Minimum inhibitory concentration (MIC)” value [13]?
Answer: >128 µg/mL

Question: What about the “Minimum inhibitory concentration (MIC)” value [14] of the same molecule?
Answer: >128 µg/mL

Question: And the “Minimum inhibitory concentration (MIC)” value [15]?
Answer: >128 µg/mL

Question: What about the “Minimum inhibitory concentration (MIC)” value [16] of the same molecule?
Answer: >128 µg/mL

Question: What about the “Minimum inhibitory concentration (MIC)” value [17] of the same molecule?
Answer: >256 µg/mL

Question: Which “Thermal and proteolytic stability against several proteases” value [18] does the source give for CC[C@H](C)[C@H](NC(=O)CNC(=O)[C@@H](NC(=O)[C@H](Cc1ccccc1)NC(=O)[C@H](Cc1ccc(O)cc1)NC(=O)[C@@H]1CCC(=O)NCC(=O)NCC(=O)N[C@@H](C)C(=O)NCC(=O)N[C@@H](Cc2cnc[nH]2)C(=O)N[C@@H](C(C)C)C(=O)N2CCC[C@H]2C(=O)N1)C(C)C)C(=O)NCC(=O)N[C@H](C(=O)N1CCC[C@H]1C(=O)N[C@H](C(=O)N[C@@H](CO)C(=O)N[C@@H](Cc1ccccc1)C(=O)N[C@@H](Cc1ccc(O)cc1)C(=O)NCC(=O)O)[C@@H](C)CC)[C@@H](C)O [Native MccJ25, Microcin J25] (GGAGHVPEYFVGIGTPISFYG-OH; lactam N-8) here?
Answer: high thermal and proteolytic stability

Question: And the “Stability to highly denaturing conditions” value [19]?
Answer: stable

Question: What about the “Hydrolysis by pepsin at 37 °C” value [9] of the same molecule?
Answer: no hydrolysis was observed

Question: What about the “Cleavage by pepsin at 50 °C” value [9] of the same molecule?
Answer: no cleavage was detected

Question: And the “Outcome of thermolysin treatment” value [11]?
Answer: double cleavage between Phe10-Val11 and Gly12-Ile13

Question: For CC[C@H](C)[C@H](NC(=O)CNC(=O)[C@@H](NC(=O)[C@H](Cc1ccccc1)NC(=O)[C@H](Cc1ccc(O)cc1)NC(=O)[C@@H]1CCC(=O)NCC(=O)NCC(=O)N[C@@H](C)C(=O)NCC(=O)N[C@@H](Cc2c[nH]cn2)C(=O)N[C@@H](C(C)C)C(=O)N2CCC[C@H]2C(=O)N1)C(C)C)C(=O)NCC(=O)N[C@H](C(=O)N1CCC[C@H]1C(=O)N[C@H](C(=O)N[C@@H](CO)C(=O)N[C@@H](Cc1ccccc1)C(=O)N[C@@H](Cc1ccc(O)cc1)C(=O)NCC(=O)O)[C@@H](C)CC)[C@@H](C)O [Native MccJ25, Microcin J25] (GGAGHVPEYFVGIGTPISFYG-OH; lactam N-8), which “Minimum inhibitory concentration (MIC)” value [20] is on record?
Answer: <0.0625 µg/mL

Question: And the “Minimum inhibitory concentration (MIC)” value [21]?
Answer: 0.8 µg/mL (≈ 0.38 µM)

Question: What about the “Minimal biofilm eradication concentration (MBEC)” value [12] of the same molecule?
Answer: greater than 128 μg/mL

Question: And the “Minimum inhibitory concentration (MIC)” value [13]?
Answer: >128 µg/mL

Question: What about the “Minimum inhibitory concentration (MIC)” value [14] of the same molecule?
Answer: >128 µg/mL

Question: And the “Minimum inhibitory concentration (MIC)” value [16]?
Answer: >128 µg/mL

Question: What about the “Minimum inhibitory concentration (MIC)” value [17] of the same molecule?
Answer: 0.5 µg/mL (≈ 0.237 µM)
